Laboratory results taken from publication PMC8343220, “The selectivity of α‐adrenoceptor agonists for the human α1A, α1B, and α1D‐adrenoceptors” (Pharmacology Research & Perspectives, 2021).

Legend:
[1] = test system: parental CHO cell line without any transfected receptors; experiment: ERK1/2‐phosphorylation, parent CHO cells without transfected receptors; format: cell-based, Chinese hamster
[2] = biological target: T1, human α1D‐adrenoceptor (full length) (Homo sapiens, UniProt P25100); experiment: ^3H‐cAMP accumulation in the presence of 10 μM forskolin, CHO‐α1D cells; format: cell-based; details: CHO‐α1D cells; for cAMP (in presence of forskolin) Fold increase: fold increase of the forskolin response
T1 construct: human α1D‐adrenoceptor (full length) were used; expressed in transfected cells; host or cells: CHO-K1
T1 sequence (P25100 1-572): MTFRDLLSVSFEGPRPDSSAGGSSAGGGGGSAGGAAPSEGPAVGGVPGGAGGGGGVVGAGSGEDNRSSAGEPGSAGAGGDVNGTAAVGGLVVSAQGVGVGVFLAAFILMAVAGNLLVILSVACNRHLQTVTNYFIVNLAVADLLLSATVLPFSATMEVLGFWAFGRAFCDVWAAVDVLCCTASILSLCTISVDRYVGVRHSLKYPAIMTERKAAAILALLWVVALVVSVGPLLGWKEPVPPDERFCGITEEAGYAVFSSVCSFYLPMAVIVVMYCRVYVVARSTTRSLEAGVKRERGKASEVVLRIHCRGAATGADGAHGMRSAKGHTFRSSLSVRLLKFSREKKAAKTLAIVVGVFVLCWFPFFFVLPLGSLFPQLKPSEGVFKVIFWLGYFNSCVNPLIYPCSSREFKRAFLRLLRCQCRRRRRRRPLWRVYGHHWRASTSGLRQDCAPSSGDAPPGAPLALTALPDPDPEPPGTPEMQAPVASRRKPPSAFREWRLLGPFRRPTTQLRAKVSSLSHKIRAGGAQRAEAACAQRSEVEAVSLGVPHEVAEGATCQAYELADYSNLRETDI

[3] = test system: parental CHO cell line without any transfected receptors; experiment: Forskolin‐stimulated cAMP accumulation, parent CHO cells without transfected receptors; format: cell-based, Chinese hamster; details: CHO cells without transfected receptors; in presence of forskolin
[4] = biological target: T2, human α1A‐adrenoceptor (Homo sapiens, UniProt P35348); experiment: Intracellular free calcium mobilization, CHO‐α1A cells; format: cell-based; details: CHO‐α1A cells; for Log efficacy ratio KD /EC50: binding KD and calcium EC50; for EC50: given as log EC50 (negative), read-out: Intracellular calcium release Log EC50 (converted); for Intracellular calcium release % ionomycin: maximal response as % of 10 µM ionomycin
T2 construct: expressed in transfected cells; host or cells: CHO-K1
T2 sequence (P35348 1-466): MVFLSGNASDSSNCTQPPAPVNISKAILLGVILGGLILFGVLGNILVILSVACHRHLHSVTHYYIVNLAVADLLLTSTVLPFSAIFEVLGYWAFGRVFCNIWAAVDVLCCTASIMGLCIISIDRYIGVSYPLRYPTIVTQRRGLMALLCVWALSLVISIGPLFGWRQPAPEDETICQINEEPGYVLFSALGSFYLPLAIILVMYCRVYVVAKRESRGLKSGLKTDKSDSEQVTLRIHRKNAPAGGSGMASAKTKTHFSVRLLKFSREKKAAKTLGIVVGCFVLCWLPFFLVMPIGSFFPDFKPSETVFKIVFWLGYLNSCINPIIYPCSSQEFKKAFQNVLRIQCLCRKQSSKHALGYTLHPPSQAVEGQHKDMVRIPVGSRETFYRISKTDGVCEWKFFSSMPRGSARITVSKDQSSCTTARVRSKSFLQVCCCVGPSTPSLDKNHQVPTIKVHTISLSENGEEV

[5] = biological target: T2, human α1A‐adrenoceptor; experiment: ^3H‐cAMP accumulation in the presence of 10 μM forskolin, CHO‐α1A cells; format: cell-based; details: CHO‐α1A cells; for EC50: 10 μM forskolin, read-out: cAMP accumulation (in presence of forskolin) Log EC50 (converted); for cAMP accumulation (in presence of forskolin) Fold increase: fold increase of the forskolin response
[6] = biological target: T3, human α1B‐adrenoceptor (Homo sapiens, UniProt P35368); experiment: ^3H‐cAMP accumulation, CHO‐α1B cells; format: cell-based; details: CHO‐α1B cells
T3 construct: expressed in transfected cells; host or cells: CHO-K1
T3 sequence (P35368 1-520): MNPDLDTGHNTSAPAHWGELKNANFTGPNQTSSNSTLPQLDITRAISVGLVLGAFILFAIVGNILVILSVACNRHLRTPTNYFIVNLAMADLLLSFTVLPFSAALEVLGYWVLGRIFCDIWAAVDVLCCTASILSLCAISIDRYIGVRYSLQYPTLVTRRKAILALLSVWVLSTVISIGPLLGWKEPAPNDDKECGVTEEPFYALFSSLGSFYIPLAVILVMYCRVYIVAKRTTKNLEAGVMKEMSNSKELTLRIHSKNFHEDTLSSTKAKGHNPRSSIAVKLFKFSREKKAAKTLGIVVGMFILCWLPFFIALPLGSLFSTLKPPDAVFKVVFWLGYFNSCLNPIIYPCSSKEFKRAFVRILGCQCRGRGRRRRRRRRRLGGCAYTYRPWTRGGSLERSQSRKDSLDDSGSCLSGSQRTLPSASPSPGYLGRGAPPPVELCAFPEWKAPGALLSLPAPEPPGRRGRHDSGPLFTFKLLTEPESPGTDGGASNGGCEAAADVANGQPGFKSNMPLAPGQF

[7] = biological target: T3, human α1B‐adrenoceptor; experiment: Intracellular free calcium mobilization, CHO‐α1B cells; format: cell-based; details: CHO‐α1B cells; for EC50: given as log EC50 (negative numbers), read-out: Intracellular calcium release Log EC50 (converted); for Log efficacy ratio KD /EC50: intrinsic efficacy ratio, KD from binding / EC50 calcium; for Intracellular calcium release % ionomycin: maximal response as % of 10 µM ionomycin response
[8] = biological target: T3, human α1B‐adrenoceptor; experiment: ERK1/2‐phosphorylation (Surefire Alphascreen), CHO‐α1B cells; format: cell-based; details: CHO‐α1B cells, for bi‐phasic responses the initial stimulatory part; for EC50: read-out: ERK1/2‐phosphorylation Log EC50 (converted); for ERK1/2‐phosphorylation % PDBu: maximal response as % PDBu response
[9] = biological target: T1, human α1D‐adrenoceptor (full length); experiment: ^3H‐prazosin whole‐cell radioligand binding, CHO‐α1D cells; details: for Kd: CHO‐α1D cells
[10] = biological target: T3, human α1B‐adrenoceptor; experiment: ^3H‐cAMP accumulation in the presence of 10 μM forskolin, CHO‐α1B cells; format: cell-based; details: CHO‐α1B cells; for cAMP accumulation (in presence of forskolin) Fold increase: fold increase of the forskolin response; for EC50: in presence of forskolin, read-out: cAMP accumulation (in presence of forskolin) Log EC50 (converted)
[11] = biological target: T2, human α1A‐adrenoceptor; experiment: ^3H‐prazosin whole‐cell radioligand binding, CHO‐α1A cells; details: for Kd: Log KD α1A, ^3H‐prazosin whole cell binding, CHO‐α1A cells, given as log KD (negative), mean ± SEM; for Affinity selectivity ratio α1A vs α1B: higher affinity for α1A than α1B; for Affinity selectivity ratio α1A vs α1D: higher affinity for α1A than α1D
[12] = biological target: T1, human α1D‐adrenoceptor (full length); experiment: Intracellular free calcium mobilization, CHO‐α1D cells; format: cell-based; details: CHO‐α1D cells; for Log efficacy ratio KD /EC50: intrinsic efficacy ratio, binding KD / calcium EC50; for EC50: log values given negative, read-out: Intracellular calcium release Log EC50 (converted); for Intracellular calcium release % ionomycin: maximal response as % of 10 µM ionomycin
[13] = biological target: T1, human α1D‐adrenoceptor (full length); experiment: ^3H‐cAMP accumulation, CHO‐α1D cells; format: cell-based; details: cAMP accumulation without forskolin
[14] = in presence of forskolin, log values given negative
[15] = 3H‐prazosin binding Log KD, whole‐cell binding (from Table 1), log values given negative
[16] = Log KD α1D, ^3H‐prazosin whole cell binding, given as log KD (negative), mean ± SEM, 'early plateau' = specific binding not fully inhibited

SMILES	cAMP (in presence of forskolin) Fold increase [2]	cAMP accumulation (in presence of forskolin) Log EC50 [3]	Log efficacy ratio KD /EC50 [4]	EC50 [4] [µM]	Intracellular calcium release % ionomycin [4] [%]	EC50 [5] [µM]	cAMP accumulation (in presence of forskolin) Fold increase [5] [fold]	EC50 [7] [µM]	Log efficacy ratio KD /EC50 [7]	Intracellular calcium release % ionomycin [7] [%]	EC50 [8] [µM]	ERK1/2‐phosphorylation % PDBu [8] [%]	Kd [9, 15] [µM]	Kd [9, 16] [µM]	cAMP accumulation (in presence of forskolin) Fold increase [10] [fold]	EC50 [10] [µM]	Kd [11] [µM]	Affinity selectivity ratio α1A vs α1B [11] [fold]	Affinity selectivity ratio α1A vs α1D [11] [fold]	Log efficacy ratio KD /EC50 [12]	other results
COc1ccc(OC)c(C(O)C(C)N)c1 (stereo not shown) [Methoxamine]	1.21 ± 0.04	No response	3.43	0.00871	55.9 ± 2.3	0.398	2.19 ± 0.09	0.229	>3.64	59.1 ± 3.2	2.82	83.8 ± 5.7	151	151	2.42 ± 0.05	6.92	23.4	>42.7	6.5	1.56	ERK1/2-phosphorylation % PDBu ([1]; CHO cells without transfected receptors, maximal response as % of PDBu (10μM) response, mean ± s.e.m.): No response; ERK1/2-phosphorylation Log EC50 ([1]; CHO cells without transfected receptors, mean ± s.e.m.): No response; EC50 [2, 14]: 10.5 µM; cAMP accumulation % forskolin at 100 µM ([6]; response at 100 µM ligand (no EC50 given)): 24.2 ± 4.6%; Affinity selectivity ratio α1B vs α1D ([9]; higher affinity for α1D than α1B): >6.6 fold; EC50 [12]: 4.17 µM; Intracellular calcium release % ionomycin [12]: 22.6 ± 4.7%; cAMP Log EC50 [13]: No response
c1ccc2c(CC3=NCCN3)cccc2c1 [Naphazoline]	No response	No response	2.39	0.00117	50.9 ± 2.6	0.0417	2.18 ± 0.05	0.00933	2.29	38.9 ± 2.9	0.151	71.1 ± 7.2	2.04	2.04	1.65 ± 0.07	0.0055	0.288	6.3	7.1	1.24	Emax at 100 µM ([1]; Cricetulus griseus, CHO, read-out: ERK1/2-phosphorylation % PDBu at 100μM): 9.2 ± 3.3%; cAMP (in presence of forskolin) Log EC50 [2, 14]: No response; cAMP accumulation % forskolin ([6]; % forskolin maximum response): 3.9 ± 0.7%; EC50 ([6]; read-out: cAMP accumulation Log EC50 (converted)): 0.0129 µM; EC50 [12]: 0.117 µM; Intracellular calcium release % ionomycin [12]: 11.8 ± 2.2%; cAMP Log EC50 [13]: No response
